This experiment deals with CD2F1 mice, L1210 leukemia ip, survival T/C. Put plainly: NCI In Vivo Anticancer Drug Screen. Data for tumor model L1210 Leukemia (intraperitoneal) in CD2F1 (CDF1) mice. As to conditions: endpoint: mean survival time, higher = longer survival. Summed up:
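Transplantable tumor in mice; compound-treated vs vehicle-treated groups. Read-out = treated/control ratio of the measured endpoint.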

Setting [1] is: dose: 100.0 mg/kg/injection, schedule: Q04DX003 (ip), vehicle: water.
Setting [2] is: dose: 100.0 mg/kg/injection, schedule: Q01DX001 (ip), vehicle: saline.
The mark [3] stands for this setting: dose: 200.0 mg/kg/injection, schedule: Q01DX001 (ip), vehicle: saline.
Where [4] appears, read: dose: 25.0 mg/kg/injection, schedule: Q04DX003 (ip), vehicle: saline with Tween-80.
Setting [5] is: dose: 50.0 mg/kg/injection, schedule: Q04DX003 (ip), vehicle: saline with Tween-80.
[6] abbreviates: dose: 100.0 mg/kg/injection, schedule: Q04DX003 (ip), vehicle: saline with Tween-80.
Where [7] appears, read: dose: 100.0 mg/kg/injection, schedule: Q04DX002 (ip), vehicle: saline with Tween-80.
Where [8] appears, read: dose: 200.0 mg/kg/injection, schedule: Q04DX002 (ip), vehicle: saline with Tween-80.
Where [9] appears, read: dose: 50.0 mg/kg/injection, schedule: Q01DX009 (ip), vehicle: saline with Tween-80.
Where [10] appears, read: dose: 100.0 mg/kg/injection, schedule: Q01DX009 (ip), vehicle: saline with Tween-80.
[11] abbreviates: dose: 400.0 mg/kg/injection, schedule: Q04DX003 (ip), vehicle: saline with Tween-80.

Several values for one entry are separate records, joined by “and”; a condition that tells them apart may be missing. Equal entries are not always repeated. Inconclusive results and toxic doses are left out.

Regarding `O=C(Nc1ccc(C2=NCCN2)cc1)c1ccc(C(=O)Nc2ccc(C3=NCCN3)cc2)cc1`, the T/C is 103 % of control (dose: 1.25 mg/kg/injection, schedule: Q01DX008 (iv), vehicle: other); 103 % of control (dose: 2.5 mg/kg/injection, schedule: Q01DX008 (iv), vehicle: other); 108 % of control (dose: 5.0 mg/kg/injection, schedule: Q01DX008 (iv), vehicle: other); 112 % of control (dose: 50.0 mg/kg/injection, schedule: Q04DX003 (ip), vehicle: water); 153 % of control (dose: 100.0 mg/kg/injection, schedule: Q01DX007 (ip), vehicle: water); 118 % of control under setting [1]. Besides, the T/C (dose: 200.0 mg/kg/injection, schedule: Q01DX007 (ip), vehicle: water) was 170 % of control and the T/C (dose: 200.0 mg/kg/injection, schedule: Q01DX009 (ip), vehicle: water) was 186 % of control.

For the compound `C=CCNC(=O)NCC=C`, the T/C is 102 % of control and 110 % of control (2×) (dose: 3.13 mg/kg/injection, schedule: Q01DX009 (ip), vehicle: saline); 102 % of control (dose: 12.5 mg/kg/injection, schedule: Q01DX005 (ip), vehicle: saline); 97 % of control (dose: 12.5 mg/kg/injection, schedule: Q02DX005 (ip), vehicle: saline); 100 % of control (dose: 12.5 mg/kg/injection, schedule: Q04DX003 (ip), vehicle: saline); 105 % of control (dose: 25.0 mg/kg/injection, schedule: Q01DX005 (ip), vehicle: saline); 100 % of control (dose: 25.0 mg/kg/injection, schedule: Q02DX005 (ip), vehicle: saline). In addition, the T/C (dose: 25.0 mg/kg/injection, schedule: Q04DX003 (ip), vehicle: saline) was 102 % of control; the T/C (dose: 50.0 mg/kg/injection, schedule: Q01DX005 (ip), vehicle: saline) was 103 % of control; the T/C (dose: 50.0 mg/kg/injection, schedule: Q02DX005 (ip), vehicle: saline) is 103 % of control; the T/C (dose: 50.0 mg/kg/injection, schedule: Q04DX003 (ip), vehicle: saline) was 103 % of control; the T/C (dose: 100.0 mg/kg/injection, schedule: Q01DX005 (ip), vehicle: saline) was 109 % of control; the T/C (dose: 100.0 mg/kg/injection, schedule: Q01DX006 (ip), vehicle: saline) was 154 % of control. The T/C is 105 % of control (dose: 100.0 mg/kg/injection, schedule: Q02DX005 (ip), vehicle: saline); 120 % of control (dose: 100.0 mg/kg/injection, schedule: Q03DX003 (ip), vehicle: saline); 115 % of control and 109 % of control (dose: 100.0 mg/kg/injection, schedule: Q04DX003 (ip), vehicle: saline); 168 % of control (dose: 200.0 mg/kg/injection, schedule: Q01DX006 (ip), vehicle: saline); 109 % of control (dose: 200.0 mg/kg/injection, schedule: Q02DX005 (ip), vehicle: saline); 115 % of control and 120 % of control (dose: 200.0 mg/kg/injection, schedule: Q04DX003 (ip), vehicle: saline). The T/C was 115 % of control (dose: 400.0 mg/kg/injection, schedule: Q02DX005 (ip), vehicle: saline) and 97 % of control (dose: 400.0 mg/kg/injection, schedule: Q04DX003 (ip), vehicle: saline).

Turning to `CC(=O)OC12C=C(C)C(C3C(=O)OC(=O)C31)C(C)(C)C2` (configuration not stated), the T/C by setting is: under setting [2], 103 % of control; under setting [3], 101 % of control.

For the compound `CC(C)n1cnc2c(=S)nc[nH]c21`, the T/C was 121 % of control (dose: 41.0 mg/kg/injection, schedule: Q01DX Z (ip), vehicle: saline) and 171 % of control (dose: 94.0 mg/kg/injection, schedule: Q01DX Z (ip), vehicle: saline).

For the compound `CCOC(=O)C(Br)C(Br)c1cccc([N+](=O)[O-])c1` (configuration not stated), the T/C by setting is: (dose: 25.0 mg/kg/injection, schedule: Q01DX009 (ip), vehicle: other) 98 % of control; (dose: 50.0 mg/kg/injection, schedule: Q01DX009 (ip), vehicle: other) 98 % of control; (dose: 100.0 mg/kg/injection, schedule: Q01DX009 (ip), vehicle: other) 101 % of control.

With `CCCCC(CC)C(=O)[O][Sn]([CH2]CCC)([CH2]CCC)[O]C(=O)C(CC)CCCC` (configuration not stated), the T/C is, setting by setting: (dose: 1.5 mg/kg/injection, schedule: Q01DX009 (ip), vehicle: saline with Tween-80) 100 % of control; (dose: 3.0 mg/kg/injection, schedule: Q01DX009 (ip), vehicle: saline with Tween-80) 100 % of control; (dose: 6.0 mg/kg/injection, schedule: Q01DX009 (ip), vehicle: saline with Tween-80) 104 % of control; (dose: 6.25 mg/kg/injection, schedule: Q04DX003 (ip), vehicle: saline with Tween-80) 105 % of control.

`O=C(NCCO)c1cccnc1`: the T/C was 103 % of control (dose: 75.0 mg/kg/injection, schedule: Q04DX003 (ip), vehicle: saline sonified); 97 % of control (dose: 150.0 mg/kg/injection, schedule: Q04DX003 (ip), vehicle: saline sonified); 97 % of control (dose: 300.0 mg/kg/injection, schedule: Q04DX003 (ip), vehicle: saline sonified); 102 % of control (dose: 600.0 mg/kg/injection, schedule: Q04DX003 (ip), vehicle: saline sonified).

As to `CN(C)CC1CCCCC1OC(=O)c1ccccc1` (configuration not stated), the T/C by setting is: under setting [4], 93 % of control; under setting [5], 97 % of control; under setting [6], 97 % of control; under setting [1], 96 % of control.

Consider `COc1ccc2c(ccc3cc(OC)ccc32)c1`, for which the T/C reads like this: (dose: 50.0 mg/kg/injection, schedule: Q04DX002 (ip), vehicle: saline with Tween-80) 93 % of control; under setting [7], 100 % of control; under setting [8], 93 % of control.

Turning to `COc1ccc2[nH]c3c(c2c1)CNCC3`, the T/C was 106 % of control (dose: 50.0 mg/kg/injection, schedule: Q01DX001 (ip), vehicle: saline); 102 % of control under setting [2]; 113 % of control under setting [3].

Take `CN(C)CCCC#N`: the T/C under setting [9] was 96 % of control and the T/C under setting [10] is 102 % of control.

As for `C=C(C)CC(O)CCCCCC` (configuration not stated), the T/C by setting is: under setting [9], 98 % of control; under setting [10], 110 % of control; (dose: 200.0 mg/kg/injection, schedule: Q01DX009 (ip), vehicle: saline with Tween-80) 107 % of control.

As to `O=C1NC(=O)C([P+](c2ccccc2)(c2ccccc2)c2ccccc2)C1=O` (configuration not stated), the T/C is 102 % of control under setting [6]; 102 % of control (dose: 200.0 mg/kg/injection, schedule: Q04DX003 (ip), vehicle: saline with Tween-80); 98 % of control under setting [11].

Take `O=C1CN=C(c2ccccn2)c2cc(Cl)ccc2N1`: the T/C reads like this: (dose: 267.0 mg/kg/injection, schedule: Q01DX009 (ip), vehicle: saline with Tween-80) 92 % of control; (dose: 400.0 mg/kg/injection, schedule: Q01DX009 (ip), vehicle: saline with Tween-80) 92 % of control.

For `COc1ccc(NC(=S)NN)cc1`, the T/C by setting is: under setting [4], 110 % of control; under setting [5], 91 % of control; under setting [6], 87 % of control and 96 % of control; under setting [11], 107 % of control.

With `COc1cc(Cc2cnc(NC(C)=O)nc2NC(C)=O)cc(OC)c1OC`, the T/C under setting [11] is 93 % of control.

`Nc1ncnc2c1ncn2CCCl`: the T/C runs as follows: (dose: 25.0 mg/kg/injection, schedule: Q01DX009 (ip), vehicle: saline with Tween-80) 102 % of control; under setting [4], 103 % of control; under setting [9], 101 % of control; under setting [5], 96 % of control; under setting [6], 97 % of control.

On to `CCCCCC(O)C(C)C` (configuration not stated), for which the T/C runs as follows: (dose: 75.0 mg/kg/injection, schedule: Q01DX001 (ip), vehicle: saline) 98 % of control; (dose: 150.0 mg/kg/injection, schedule: Q01DX001 (ip), vehicle: saline) 91 % of control.

For the compound `O=[N+]1C=CC(=NN=c2ccn([O-])cc2)C=C1`, the T/C is, setting by setting: under setting [7], 100 % of control; under setting [8], 96 % of control.

The record behind these values is PubChem BioAssay AID256 (DTP/NCI, 2004).
